Assays:
Type in all cases: physicochemical
[1] = Iodine content
[2] = Viscosity of aqueous solutions; conditions: 30°C, 300mg I/ml
[3] = Osmolality of aqueous solutions; conditions: 300mg I/ml

Row | SMILES | % Iodine [1] | Viscosity mPa s (30°C) at 300mg I/ml [2] | Osmolality mosm/kg at 300mg I/ml [3] [mosm/kg]
1 | COCC(=O)Nc1c(I)c(C(=O)NCC(=O)Nc2c(I)c(C(=O)N(C)CC(O)CO)c(I)c(C(=O)N(C)CC(O)CO)c2I)c(I)c(C(=O)NCC(O)CO)c1I (stereo not shown) [EXAMPLE 1, N,N'-bis-(2,3-dihydroxypropyl)-N,N'-dimethyl-5-{3-[N-(2,3-dihydroxypropyl)carbamoyl]-5-methoxyacetamido-2,4,6-triiodobenzoylaminoacetamido}-2,4,6-triiodoisophthalamide] | 51,6% | 7,2 mPa s | 310
2 | CN(CC(O)CO)C(=O)c1c(I)c(NC(=O)CNC(=O)c2c(I)c(NC(=O)CO)c(I)c(C(=O)NCC(O)CO)c2I)c(I)c(C(=O)N(C)CC(O)CO)c1I (stereo not shown) [EXAMPLE 2, N.N'-bis-(2,3-dihydroxypropyl)-N,N'-dimethyl-5-{3-[N-(2,3-dihydroxypropyl)carbamoyl]-5-hydroxyacetamido-2,4,6-triiodobenzoylaminoacetamido}-2,4,6-triiodoisophthalamide] | 52% | 8,4 mPa s | 166
3 | CN(C(=O)CNC(=O)c1c(I)c(NC(=O)CO)c(I)c(C(=O)NCC(O)CO)c1I)c1c(I)c(C(=O)NC(CO)C(O)CO)c(I)c(C(=O)NC(CO)C(O)CO)c1I (stereo not shown) [EXAMPLE 3, N,N'-bis-(1-hydroxymethyl-2,3-dihydroxyprogyl)-5-{3[N-(2,3-dihydroxypropyl)carbamoyl]-5-hydroxyacetamido-2,4,6-triiodobenzoylaminoacetyl-N-methylamino}-2,4,6-triiodoisophthalamide] | 50,5% | 9,3 mPa s | 184
4 | COCC(=O)Nc1c(I)c(C(=O)NCC(=O)N(C)c2c(I)c(C(=O)NC(CO)C(O)CO)c(I)c(C(=O)NC(CO)C(O)CO)c2I)c(I)c(C(=O)NCC(O)CO)c1I (stereo not shown) [EXAMPLE 4, N,N'-bis-(1-hydroxymethyl-2,3-dihydroxypropyl)-5-{3-(N-(2,3-dihydroxypropyl)carbamoyl]-5-methoxyacetamido-2,4,6-triiodobenzoylaminoacetyl-N-methylamino}-2,4,6-triiodo isophthalamide] | 50% | 9,4 mPa s | 289
5 | COCC(=O)Nc1c(I)c(C(=O)NCC(=O)Nc2c(I)c(C(=O)N(C)CC(O)CO)c(I)c(C(=O)N(C)CC(O)CO)c2I)c(I)c(C(=O)NC(CO)C(O)CO)c1I (stereo not shown) [EXAMPLE 5, N,N'-bis-(2,3-dihydroxypropyl)-N,N'-dimethyl-5-{3-[N-(1-hydroxymethyl-2,3-dihydroxypropyl)carbamoyl]-5-methoxyacetamido-2,4,6-triiodobenzoylaminoacetamido}-2,4,6-triiodoisophthalamide] | 50,5% | 10,2 mPa s | 119
6 | COCC(=O)Nc1c(I)c(C(=O)NCC(=O)Nc2c(I)c(C(=O)NCC(O)CO)c(I)c(C(=O)NCC(O)CO)c2I)c(I)c(C(=O)NC(CO)C(O)CO)c1I (stereo not shown) [EXAMPLE 6, N,N'-bis-(2,3-dihydroxypropyl)-5-{3-[N-(1-hydroxymethyl-2,3-dihydroxypropyl)carbamoyl]-5-methoxyacetamido-2,4,6-triiodobenzoylaminoacetamido}-2,4,6-triiodoisochthalamide] | 51,5% | 9,5 mPa s | 116
7 | COCC(=O)Nc1c(I)c(C(=O)NCC(=O)Nc2c(I)c(C(=O)NC(CO)C(O)CO)c(I)c(C(=O)NC(CO)C(O)CO)c2I)c(I)c(C(=O)NC(CO)C(O)CO)c1I (stereo not shown) [EXAMPLE 7, N,N'-bis-(1-hydroxymethyl-2,3-dihydroxypropyl)-5-{3-[N-(1-hydroxymethyl-2,3-dihydroxypropyl)carbamoyl]-5-methoxyacetamido-2,4,6-triiodobenzoylaminoacetamido}-2,4,6-triiodo isophthalamide] | 49,5% | 10,5 mPa s | 147
8 | CN(CC(=O)N(C)c1c(I)c(C(=O)NC(CO)C(O)CO)c(I)c(C(=O)NC(CO)C(O)CO)c1I)C(=O)c1c(I)c(NC(=O)CO)c(I)c(C(=O)NCC(O)CO)c1I (stereo not shown) [EXAMPLE 8, N,N'-bis-(1-hydroxymethyl-2,3-dihydroxypropyl)-5-{3-[N-(2,3-dihydroxypropyl)carbamoyl]-5-hydroxyacetamido-2,4,6-triiodobenzoyl-N-methylaninoacetyl-N-nethylamino}-2,4,6-tri iodoisophthalamide] | 50% | 7,6 mPa s | 190
9 | COCC(=O)Nc1c(I)c(C(=O)NC(CO)C(O)CO)c(I)c(C(=O)N(C)CC(=O)N(C)c2c(I)c(C(=O)NC(CO)C(O)CO)c(I)c(C(=O)NC(CO)C(O)CO)c2I)c1I (stereo not shown) [EXAMPLE 10, N,N'-bis-(1-hydroxymethyl-2,3-dihydroxypropyl)-5-{3-[N-(1-hydroxymethyl-2,3-dihydroxypropyl)carbamoyl]-5-methoxyacetamido-2,4,6-triiodobenzoyl-N-methylaminoacetyl-N-methylamino}-2,4,6-triiodoisophthalamide] | 48,6% | 8,9 mPa s | 204
10 | COCC(=O)Nc1c(I)c(C(=O)NCC(O)CO)c(I)c(C(=O)N(C)CC(=O)N(C)c2c(I)c(C(=O)N(CCO)CCO)c(I)c(C(=O)N(CCO)CCO)c2I)c1I (stereo not shown) [EXAMPLE 30, N,N,N',N', -tetrakis-(2-hydroxyethyl)-5-{3-[N-(2,3-dihydroxypropyl)carbamoyl]-5-methoxyacetamido-2,4,6-triiodobenzoyl-N -methylaminoacetyl-N-methylamino}-2,4,6-triiodo-isophthalamide] | 50,6% |  | 
11 | COCC(=O)Nc1c(I)c(C(=O)NCC(=O)Nc2c(I)c(C(=O)N(CCO)CCO)c(I)c(C(=O)N(CCO)CCO)c2I)c(I)c(C(=O)NCC(O)CO)c1I (stereo not shown) [EXAMPLE 31, N,N,N',N'-tetrakis(2-hydroxyethyl)-5-{3-[N(2,3-dihydroxypropyl)carbamoyl]-5-methoxyacetamido-2,4,6-triiodobenzoylaminoacetamido}-2,4,6-triiodoisophthalamide] | 51,6% |  | 
12 | COCC(=O)N(CCO)c1c(I)c(C(=O)NCC(O)CO)c(I)c(C(=O)N(CCO)CC(=O)N(CCO)c2c(I)c(C(=O)NCC(O)CO)c(I)c(C(=O)NCC(O)CO)c2I)c1I (stereo not shown) [EXAMPLE 33, N,N'-bis-(2,3-dihydroxypropyl)-5-{3-[N-(2,3-dihydroxypropyl)carbamoyl]-5-methoxyacetyl-N-(2-hydroxyethyl)amino-2,4,6-triiodobenzoyl-N-(2-hydroxyethyl)aminoacetyl-N-(2-hydroxyethyl)amino)-2,4,6-triiodoisophthalamide] | 48,2% |  | 
13 | O=C(NCC(=O)N(CCO)c1c(I)c(C(=O)NCC(O)CO)c(I)c(C(=O)NCC(O)CO)c1I)c1c(I)c(C(=O)NCC(O)CO)c(I)c(N(CCO)C(=O)CO)c1I (stereo not shown) [EXAMPLE 34, N,N'-bis-(2,3-dihydroxypropyl)-5-{3-[N-(2,3-dihydroxypropyl)carbamoyl]-5-hydroxyacetyl-N-(2-hydroxyethyl)amino-2,4,6-triiodobenzoylaminoacetyl-N-(2-hydroxyethyl)amino}-2,4,6-triiodoisophthalamide] | 50% |  | 

— patent EP0571593B1, “NEW NON IONIC IODIZED AGENTS FOR X-RAY CONTRASTING, METHOD FOR PREPARING THEM AND GALENICAL COMPOSITIONS CONTAINING THEM” (CENTRO INVESTIGACION JUSTESA IMAGEN S.A., priority 1991, dated 1993)
